The values below come from PubChem BioAssay AID1259407 (Chemical Carcinogenesis Research Information System (CCRIS), 2018).

For this data set, the system named is CCRIS mutagenicity, Ames/micronucleus/aberration tests. The data set can be described thus: CCRIS mutagenicity studies. As to conditions: Test System: AMES SALMONELLA TYPHIMURIUM
Setting [1] is: Strain/Indicator: TA98, Metabolic Activation: NONE, Method: STANDARD PLATE.
The mark [2] stands for this setting: Strain/Indicator: TA100, Metabolic Activation: NONE, Method: STANDARD PLATE.
[3] abbreviates: Strain/Indicator: TA1535, Metabolic Activation: NONE, Method: STANDARD PLATE.
Where [4] appears, read: Strain/Indicator: TA1537, Metabolic Activation: NONE, Method: STANDARD PLATE.
Where [5] appears, read: Strain/Indicator: TA1538, Metabolic Activation: NONE, Method: STANDARD PLATE.

SMILES strings stand for the structures. Active and inactive are the calls of the source. The rule behind the calls is not given here.

For `CCN(CCCl)c1ccc(OCCCCCNc2c3ccccc3nc3ccccc23)cc1`, the mutagenic call reads like this: (Strain/Indicator: DG1588, Metabolic Activation: NONE, Method: STANDARD PLATE) “inactive; negative”; (Strain/Indicator: DG1592, Metabolic Activation: NONE, Method: STANDARD PLATE) “inactive; negative”; (Strain/Indicator: DG1593, Metabolic Activation: NONE, Method: STANDARD PLATE) “active; positive”; under setting [1], “active; positive”; under setting [2], “active; positive”; (Strain/Indicator: TA102, Metabolic Activation: NONE, Method: STANDARD PLATE) “inactive; negative”. In addition, the mutagenic call runs as follows: (Strain/Indicator: TA104, Metabolic Activation: NONE, Method: STANDARD PLATE) “inactive; negative”; under setting [3], “inactive; negative”; (Strain/Indicator: TA1537 (PKM101), Metabolic Activation: NONE, Method: STANDARD PLATE) “active; positive”; under setting [4], “active; positive”; under setting [5], “inactive; negative”; (Strain/Indicator: TA1975 (PKM101), Metabolic Activation: NONE, Method: STANDARD PLATE) “inactive; negative”. Besides, the mutagenic call is, setting by setting: (Strain/Indicator: TA1975, Metabolic Activation: NONE, Method: STANDARD PLATE) “inactive; negative”; (Strain/Indicator: TA1977, Metabolic Activation: NONE, Method: STANDARD PLATE) “active; positive”; (Strain/Indicator: TA1978 (PKM101), Metabolic Activation: NONE, Method: STANDARD PLATE) “active; positive”; (Strain/Indicator: TA1978, Metabolic Activation: NONE, Method: STANDARD PLATE) “inactive; negative”; (Strain/Indicator: TA4001, Metabolic Activation: NONE, Method: STANDARD PLATE) “active; positive”; (Strain/Indicator: TA4006, Metabolic Activation: NONE, Method: STANDARD PLATE) “inactive; negative”.
As to `O=c1ccc2cc3ccoc3cc2o1`, the mutagenic call was “inactive; negative” under setting [1]; “inactive; negative” (Strain/Indicator: TA98, Metabolic Activation: RAT, LIVER, S-9, AROCLOR 1254, Method: STANDARD PLATE); “inactive; negative” (Strain/Indicator: TA98, Metabolic Activation: RAT, LIVER, S-9, PHENOBARBITAL, Method: STANDARD PLATE); “inactive; negative” under setting [2]; “inactive; negative” (Strain/Indicator: TA100, Metabolic Activation: RAT, LIVER, S-9, AROCLOR 1254, Method: STANDARD PLATE).
With `O=[N+]([O-])c1ccc(Nc2ccc(Nc3ccccc3)c(S(=O)(=O)O)c2)c([N+](=O)[O-])c1`, the mutagenic call is, setting by setting: (Strain/Indicator: TA97, Metabolic Activation: HAMSTER, LIVER, S-9, AROCLOR 1254, Method: PREINCUBATION) “active; positive”; (Strain/Indicator: TA97, Metabolic Activation: NONE, Method: PREINCUBATION) “active; positive”; (Strain/Indicator: TA97, Metabolic Activation: RAT, LIVER, S-9, AROCLOR 1254, Method: PREINCUBATION) “active; positive”; (Strain/Indicator: TA98, Metabolic Activation: HAMSTER, LIVER, S-9, AROCLOR 1254, Method: PREINCUBATION) “active; positive”; (Strain/Indicator: TA98, Metabolic Activation: NONE, Method: PREINCUBATION) “active; positive”; (Strain/Indicator: TA98, Metabolic Activation: RAT, LIVER, S-9, AROCLOR 1254, Method: PREINCUBATION) “active; positive”. Also, the mutagenic call is “active; positive” (Strain/Indicator: TA100, Metabolic Activation: HAMSTER, LIVER, S-9, AROCLOR 1254, Method: PREINCUBATION); “active; positive” (Strain/Indicator: TA100, Metabolic Activation: NONE, Method: PREINCUBATION); “active; positive” (Strain/Indicator: TA100, Metabolic Activation: RAT, LIVER, S-9, AROCLOR 1254, Method: PREINCUBATION); “inactive; negative” (Strain/Indicator: TA1535, Metabolic Activation: HAMSTER, LIVER, S-9, AROCLOR 1254, Method: PREINCUBATION); “inactive; negative” (Strain/Indicator: TA1535, Metabolic Activation: NONE, Method: PREINCUBATION); “inactive; negative” (Strain/Indicator: TA1535, Metabolic Activation: RAT, LIVER, S-9, AROCLOR 1254, Method: PREINCUBATION).
`CCCCOc1ccc2nc3cc(Cl)ccc3c(NCCCN(CC)CCCl)c2n1`: the mutagenic call by setting is: under setting [1], “active; positive”; under setting [2], “inactive; negative”; under setting [3], “inactive; negative”; (Strain/Indicator: TA1536, Metabolic Activation: NONE, Method: STANDARD PLATE) “active; positive”; under setting [4], “active; positive”; under setting [5], “active; positive”.
